Reference: PMC6234689 (International Journal of Retina and Vitreous, 2018)

Assays:
in vivo = conditions: New Zealand, rabbit, 40 µg
rabbit retina [1] = conditions: intravitreal 40 µg/50 µL, 24, 48, 72 and 168 h
Protocol: (§1) Baseline electroretinogram (ERG) was obtained for rabbits prior the intravitreal injection as the method described below. […] The effective dose was calculated from the previous study performed in our lab.

[2] = test system: progression of retinopathy; set-up: method as in PMID 9726242; conditions: EUCLID Study, diabetic patients; cited from earlier work
[3] = rabbit, intravitreal 40 µg/50 µL
[4] = Stability of intravitreal formulation after thermal sterilization by autoclaving; type: physicochemical; conditions: 0.08% w/v in sterile saline, concentration before and after autoclaving
Excerpt: After checking it for pH, it was filled, sealed in glass ampoules and subjected for autoclaving.

rabbit retina [5] = experiment: Fundus imaging after intravitreal injection; type: in vivo, New Zealand rabbits; conditions: intravitreal 40 µg/0.05 ml, observational period of 7 days
Protocol: as §1
Following Electroretinogram (ERG) study, rabbit retina was focused and fundus images of both eyes were recorded using streampix software using MICRON III rodent imaging system (Phoenix Lab, USA) after subjecting them for ERG.

## NCCCC[C@H](N[C@@H](CCc1ccccc1)C(=O)O)C(=O)N1CCC[C@H]1C(=O)O [lisinopril]
In vivo; in vivo
  half-life: 12.6 h
In vivo; vitreous humour
  half-life: 41.5 h
Rabbit retina [1]
  'a' and 'b' wave amplitude of ERG compared to baseline: No changes were observed
[2]
  reduction of the risk of progression of retinopathy: approximately 50%
[3]; at 1 h
  lisinopril concentration in retina-choroid (highest): 7 µg
  lisinopril concentration in the vitreous humour (highest): 14.52 µg
[3]; at 2 h
  maximum concentration in sclera: 6.6 µg
[4]
  stability of formulation after thermal sterilization by autoclaving: stable
Rabbit retina [5]
  morphological changes in the retina on fundus images: no significant morphological changes
